The record followed here is US20090264415A2 (priority 2004, published 2009).

Each structure is given as a SMILES string. Read-outs that look alike come from different tables or passages of the source.

In assay [1] the test system is phosphodiesterase-4 (PDE-4) extract from U937 cells. The experiment in a line: Phosphodiesterase-4 inhibiting activity (isotopic two-step method). Type of assay: biochemical. To be noted: for IC50: 1.01 μM [3H]cAMP+cAMP.
Assay [2] deals with production of human TNF-α by PBMC in response to LPS. The experiment in a line: TNF-α assay (LPS-stimulated PBMC, sandwich ELISA). Type of assay: cell-based. To be noted: LPS 1 μg/ml, 72 hours, read-out: TNF α. The procedure: Peripheral blood mononuclear cells (herein referred as PBMC), in response to stimulation by lipopolysaccharide (hereinafter LPS), a gram-negative bacterial endotoxin, produce various […], in particular human TNF-α. Inhibition of the activation of PBMC can therefore be measured by the level of suppression of the production of TNF-α by PBMC in response to stimulation by LPS. Inhibition measurement was performed as follows: PBMC were isolated from heparinized peripheral blood by density gradient centrifugation over Lymphoprep (commercially available from Nycomed, Norway). LPS was then added to the PMBC suspension in complete medium (10^6 cells/ml) at a final concentration of 1 μg/ml. The pteridine derivative to be tested was added at different concentrations (0.1 μM, 1 μM and 10 μM) and the cells were incubated at 37° C. for 72 hours in 5% CO2. The supernatants were collected, then TNF-α concentrations were measured with respectively an anti-TNF-α antibody in a sandwich ELISA (Duo Set ELISA human TNFα, commercially available from R&D Systems, United Kingdom). The colorimetric reading of the ELISA was measured by a Multiskan RC plate reader (commercially available from ThermoLabsystems, Finland) at 450 nm (reference wavelength: 690 nm). Data analysis was performed with Ascent software 2.6. (also from ThermoLabsystems, Finland): a standard curve (recombinant human TNFα) was drawn and the amount (pg/ml) of each sample on the standard curve was determined. The % suppression of human TNFα production by the pyrido[3,2-d]pyrimidine derivatives of the invention was calculated using the formula: [formula]
On the technique in general: An ELISA detects its analyte on a solid surface through an enzyme-linked reagent.

Assay [3] relates to peripheral blood mononuclear cells (PBMC) stimulated with allogeneic PBMC or EBV-transformed human B cells (RPMI1788). The experiment in a line: Mixed lymphocyte reaction (MLR) assay. Type of assay: cell-based. The settings on record: 50% suppression of the MLR, [3H]-thymidine incorporation, read-out: MLR. Summed up: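 Compounds, held as 10 mM DMSO stocks and diluted in culture medium, were added to PBMC stimulated by 30 Gy-irradiated allogeneic PBMC or RPMI1788 cells. Proliferation was read as [3H]-thymidine uptake (1 μCi, final 16 h) after 5 days at 37° C. Inhibition was derived from cpm.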
Background: Uptake of a labelled nucleoside into DNA is a usual measure of proliferation.

On to `COc1ccc(-c2ccc3ncnc(N4CCN(C(=O)Nc5cccc(C)c5)CC4)c3n2)cc1OC` [Example 8], for which the IC50 was 0.016 µM in assay [1]; 0.07 µM in assay [2] (Homo sapiens, PBMC); 0.0094 µM in assay [3] (Homo sapiens, RPMI-1788).

`COc1ccc(-c2ccc3nc(C)nc(N4CCN(C(=O)Nc5cccc(C)c5)CC4)c3n2)cc1OC` [Example 11]: the “PDE-4 (% inhibition)” value in assay [1] (@ 0.5 μM) amounted to 69% @ 0.5 μM. In addition, the figures for the IC50 in assay [2] and in assay [3] were 0.5 µM and 0.026 µM, respectively.

With `COc1ccc(-c2ccc3nc(N)nc(OC(C)C)c3n2)cc1OC` [Example 24, 2-amino-4-isopropoxy-6-(3,4-dimethoxyphenyl)pyrido[3,2-d]pyrimidine], in assay [1] (@ 0.5 μM), the “PDE-4 (% inhibition)” value was found to be 29% @ 0.5 μM. Moreover, the IC50 in assay [2] (Homo sapiens, PBMC) worked out at 0.5 µM; in assay [3] (Homo sapiens, RPMI-1788), 0.066 µM.

Turning to `CCOC(=O)C1CCN(c2nc(N)nc3ccc(-c4ccc(OC)c(OC)c4)nc23)CC1` [Example 26, 2-amino-4-[4-(ethoxycarbonyl)piperidin-1-yl]-6-(3,4-dimethoxyphenyl)pyrido[3,2-d]pyrimidine], the IC50 in assay [1] was 0.25 µM; in assay [2] (Homo sapiens, PBMC), 0.06 µM; in assay [3] (Homo sapiens, RPMI-1788), 2.6 µM.

Take `COc1ccc(-c2ccc3nc(N)nc(N4CCN(c5ccc(F)cc5)CC4)c3n2)cc1OC` [Example 43, 2-amino-4-(4-fluorophenyl-piperazin-1-yl)-6-(3,4-dimethoxyphenyl)-pyrido[3,2-d]pyrimidine]: in assay [1] (@ 0.09 μM), the “PDE-4 (% inhibition)” value is reported as 61% @ 0.09 μM. The values for the IC50 in assay [2] and in assay [3] were 0.09 µM and 0.3 µM, respectively.

As to `COc1ccc(-c2ccc3nc(N)nc(N4CCN(c5ccccn5)CC4)c3n2)cc1OC` [Example 47, 2-amino-4-(2-pyridyl-piperazin-1-yl)-6-(3,4-dimethoxyphenyl)-pyrido[3,2-d]pyrimidine], the “PDE-4 (% inhibition)” value in assay [1] (@ 0.05 μM) worked out at 64% @ 0.05 μM. In addition, the IC50 amounted to 0.05 µM in assay [2] and 0.3 µM in assay [3].

As to `COc1ccc(-c2ccc3nc(N)nc(N4CCN(C(=O)c5ccco5)CC4)c3n2)cc1OC` [Example 51, 2-amino-4-[1-(2-furoyl)-piperazin-1-yl]-6-(3,4-dimethoxyphenyl)-pyrido[3,2-d]pyrimidine], the “PDE-4 (% inhibition)” value in assay [1] (@ 0.03 μM) was found to be 63% @ 0.03 μM. In addition, the IC50 in assay [3] amounted to 0.03 µM.

In the case of `COc1ccc(-c2ccc3nc(N)nc(N4CCN(C(=O)COc5ccc(Cl)cc5)CC4)c3n2)cc1OC` [Example 59, 2-amino-4-[(N-4-chloro-phenoxy-acetyl)-piperazin-1-yl]-6-(3,4-dimethoxyphenyl)-pyrido[3,2-d]pyrimidine], the IC50 in assay [1] amounted to 0.034 µM; in assay [3] (Homo sapiens, RPMI-1788) it was 0.016 µM.

Take `COc1ccc(-c2ccc3ncnc(N4CCN(C(=O)Nc5cccc(Cl)c5)CC4)c3n2)cc1Cl` [Example 79, 4-[(N-3-chlorophenylcarbamoyl)-piperazin-1-yl]-6-(3-chloro-4-methoxyphenyl)-pyrido[3,2-d]pyrimidine]: in assay [1] (@ 10 μM), the “PDE-4 (% inhibition)” value came to 67% @ 10 μM. Besides, in assay [3], the IC50 was found to be 0.3 µM.

Take `O=C(Nc1cccc(Cl)c1)N1CCN(c2ncnc3ccc(-c4ccc5c(c4)OCCO5)nc23)CC1` [Example 80, 4-[(N-3-chlorophenylcarbamoyl)-piperazin-1-yl]-6-(1,4-benzodioxan-6-yl)-pyrido[3,2-d]pyrimidine]: in assay [1] (@ 10 μM), the “PDE-4 (% inhibition)” value was found to be 17% @ 10 μM. Also, in assay [3], the IC50 amounted to 0.3 µM.

With `Cc1ccc(-c2ccc3ncnc(N4CCN(C(=O)Nc5cccc(Cl)c5)CC4)c3n2)cc1C` [Example 81], the “PDE-4 (% inhibition)” value in assay [1] (@ 10 μM) came out at 12% @ 10 μM. For the same compound, the IC50 in assay [3] is 0.5 µM.

For the compound `O=C(Nc1cccc(Cl)c1)N1CCN(c2ncnc3ccc(-c4ccc5c(c4)OCO5)nc23)CC1` [Example 82, 4-[(N-3-chlorophenylcarbamoyl)-piperazin-1-yl]-6-(3,4-methylenedioxy)phenyl-pyrido[3,2-d]pyrimidine], in assay [1] (@ 10 μM), the “PDE-4 (% inhibition)” value was found to be 31% @ 10 μM. For the same compound, the IC50 in assay [3] was determined as 0.3 µM.

Take `CCOc1ccc(-c2ccc3ncnc(N4CCN(C(=O)Nc5cccc(Cl)c5)CC4)c3n2)cc1Cl` [Example 83]: the “PDE-4 (% inhibition)” value in assay [1] (@ 10 μM) was 49% @ 10 μM. The IC50 in assay [3] came out at 0.5 µM.

As for `O=C(Nc1cccc(Cl)c1)N1CCN(c2ncnc3ccc(-c4ccc(Cl)c(Cl)c4)nc23)CC1` [Example 84], in assay [1] (@ 10 μM), the “PDE-4 (% inhibition)” value was 22% @ 10 μM. Moreover, the IC50 in assay [3] is 0.7 µM.

Regarding `COc1cc(-c2ccc3ncnc(N4CCN(C(=O)Nc5cccc(Cl)c5)CC4)c3n2)ccc1OC(C)C` [Example 121], the “PDE-4 (% inhibition)” value in assay [1] (@ 10 μM) is 54% 10 μM. Besides, the IC50 in assay [3] amounted to 0.3 µM.

Consider `Nc1nc(N2CCN(C(=O)COc3ccc(Cl)cc3)CC2)c2nc(-c3ccc(F)cc3)ccc2n1` [Example 207, 2-amino-4-[(N-4-chloro-phenoxy-acetyl)-piperazin-1-yl]-6-(4-fluorophenyl)-pyrido[3,2-d]pyrimidine], for which, in assay [1] (@ 10 μM), the “PDE-4 (% inhibition)” value was 34% @ 10 μM. Further, the IC50 in assay [3] is 0.03 µM.

`COc1cc(-c2ccc3ncnc(N4CCN(C(=O)Nc5cccc(Cl)c5)CC4)c3n2)ccc1OCC1CC1` [Example 211, 4-[N-(3-chloro-phenylcarbamoyl)-piperazin-1-yl]-6-(3-methoxy-4-cyclopropylmethoxy-phenyl)-pyrido[3,2-d]pyrimidine]: the “PDE-4 (% inhibition)” value in assay [1] (@ 10 μM) is on record as 16% @ 10 μM. Also, in assay [3], the IC50 was 0.4 µM.

Regarding `COc1ccc(-c2ccc3nc(N)nc(NC4CCCN(C(=O)OC(C)(C)C)C4)c3n2)cc1OC` (stereo not drawn) [Example 257, 2-amino-4-[(1-Boc-piperidin-3-yl)amino]-6-(3,4-dimethoxyphenyl)-pyrido[3,2-d]pyrimidine], the IC50 in assay [2] (Homo sapiens, PBMC) was 0.6 µM; in assay [3] (Homo sapiens, RPMI-1788), 0.3 µM.

Take `COc1ccc(-c2ccc3nc(N)nc(NC4CCCN(C(=O)OCc5ccccc5)C4)c3n2)cc1OC` (stereo not drawn) [Example 258, 2-amino-4-[(1-Cbz-piperidin-3-yl)amino]-6-(3,4-dimethoxyphenyl)-pyrido[3,2-d]pyrimidine]: the IC50 in assay [2] (Homo sapiens, PBMC) is 0.3 µM; in assay [3] (Homo sapiens, RPMI-1788), 0.9 µM.

As to `COc1ccc(-c2ccc3nc(N)nc(NCCCNC(=O)Nc4cccc(C)c4)c3n2)cc1OC` [Example 262, 2-amino-4-[(3-methylphenylcarbamoyl)-3-aminopropane-amino-1-N-yl]-6-(3,4-dimethoxyphenyl)-pyrido[3,2-d]pyrimidine], the IC50 stood at 6.9 µM in assay [2] (Homo sapiens, PBMC) and 0.5 µM in assay [3] (Homo sapiens, RPMI-1788).

Take `COc1ccc(-c2ccc3nc(N)nc(NC4CCN(C(=O)Nc5cccc(C)c5)CC4)c3n2)cc1OC` [Example 263]: the IC50 in assay [2] (Homo sapiens, PBMC) turned out to be 0.5 µM; in assay [3] (Homo sapiens, RPMI-1788), 0.07 µM.

In the case of `COc1ccc(-c2ccc3nc(N)nc(NC4CCCN(C(=O)Nc5cccc(C)c5)C4)c3n2)cc1OC` (stereo not drawn) [Example 264, 2-amino-4-[(3-methylphenylcarbamoylpiperidin-3-yl)amino)-6-(3,4-dimethoxyphenyl]-pyrido[3,2-d]pyrimidine], the IC50 in assay [2] (Homo sapiens, PBMC) was 1.8 µM; in assay [3] (Homo sapiens, RPMI-1788), 0.5 µM.

Regarding `COc1ccc(-c2ccc3nc(N)nc(NCCNC(=O)COc4ccc(Cl)cc4)c3n2)cc1OC` [Example 265], the IC50 turned out to be 3.9 µM in assay [2] (Homo sapiens, PBMC) and 0.3 µM in assay [3] (Homo sapiens, RPMI-1788).

As to `COc1ccc(-c2ccc3nc(N)nc(NCCCNC(=O)COc4ccc(Cl)cc4)c3n2)cc1OC` [Example 266, 2-amino-4-[3-N-(4-chlorophenoxy-acetyl)-3-amino-propane-amine-1-N-yl]-6-(3,4-dimethoxyphenyl)-pyrido[3,2-d]pyrimidine], the IC50 in assay [2] (Homo sapiens, PBMC) turned out to be 0.9 µM; in assay [3] (Homo sapiens, RPMI-1788) it was 0.7 µM.

In the case of `COc1ccc(-c2ccc3nc(N)nc(N4CC[C@@H](NC(=O)COc5ccc(Cl)cc5)C4)c3n2)cc1OC` [Example 267], the IC50 in assay [2] (Homo sapiens, PBMC) is 2.5 µM; in assay [3] (Homo sapiens, RPMI-1788), 0.7 µM.

For the compound `COc1ccc(-c2ccc3nc(N)nc(N4CCCC(C(=O)NCC(C)C)C4)c3n2)cc1OC` (stereo not drawn) [Example 268, 2-amino-4-[(3-carboxylic acid isobutylamide)-piperidin-1-yl]-6-(3,4-dimethoxyphenyl)-pyrido[3,2-d]pyrimidine], the IC50 in assay [2] (Homo sapiens, PBMC) amounted to 0.7 µM; in assay [3] (Homo sapiens, RPMI-1788), 0.5 µM.

As to `COc1ccc(-c2ccc3nc(N)nc(NCC(=O)N4CCN(Cc5ccccc5)CC4)c3n2)cc1OC` [Example 271, 2-amino-4-[2-(4-benzylpiperazin-1-yl)-2-oxo-ethane-amino]-6-(3,4-dimethoxyphenyl)-pyrido[3,2-d]pyrimidine], the IC50 in assay [2] (Homo sapiens, PBMC) came out at 0.5 µM; in assay [3] (Homo sapiens, RPMI-1788), 0.7 µM.
